This is an account of results in patent US6653478B2, “Substituted benzimidazol-2-ones as vasopressin receptor antagonists and neuropeptide Y modulators” (Ortho-McNeil Pharmaceutical, Inc., priority 2000, dated 2003).

The target in experiment [1] is T1, NPY2 receptors (Homo sapiens, UniProt P49146).
T1 construct: Cell Membranes from KAN-TS cells having NPY2 receptors; endogenous in cells; host or cells: KAN-TS cells (membranes)
T1 sequence (P49146 1-381): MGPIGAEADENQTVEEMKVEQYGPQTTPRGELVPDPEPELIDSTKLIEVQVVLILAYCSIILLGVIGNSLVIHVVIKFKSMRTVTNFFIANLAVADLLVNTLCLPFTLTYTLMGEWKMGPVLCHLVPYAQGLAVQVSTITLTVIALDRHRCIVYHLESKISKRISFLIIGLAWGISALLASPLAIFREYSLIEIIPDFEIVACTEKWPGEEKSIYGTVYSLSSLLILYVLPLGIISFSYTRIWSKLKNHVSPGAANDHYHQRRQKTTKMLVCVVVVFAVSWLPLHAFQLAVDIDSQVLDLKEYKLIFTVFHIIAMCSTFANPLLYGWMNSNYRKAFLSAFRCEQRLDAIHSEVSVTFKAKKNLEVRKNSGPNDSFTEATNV
The experiment is described as follows: Neuropeptide Y receptor binding assay (125I-PYY, KAN-TS cell membranes). The note with it: 10 μM compound; for inhibition at 10 µM: read-out: NPY-2@10, % Inh. A digest of the protocol:
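Membranes from KAN-TS cells competed with 125I-PYY in binding buffer containing BSA, test compound at 10 μM final, 1 hr at room temperature. Nonspecific binding defined with 1 μM PYY final. Tubes centrifuged, washed with PBS and bound radioactivity gamma-counted.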

Experiment [2] concerns the target T2, human V1b receptor (Homo sapiens, UniProt P47901).
T2 sequence (P47901 1-424): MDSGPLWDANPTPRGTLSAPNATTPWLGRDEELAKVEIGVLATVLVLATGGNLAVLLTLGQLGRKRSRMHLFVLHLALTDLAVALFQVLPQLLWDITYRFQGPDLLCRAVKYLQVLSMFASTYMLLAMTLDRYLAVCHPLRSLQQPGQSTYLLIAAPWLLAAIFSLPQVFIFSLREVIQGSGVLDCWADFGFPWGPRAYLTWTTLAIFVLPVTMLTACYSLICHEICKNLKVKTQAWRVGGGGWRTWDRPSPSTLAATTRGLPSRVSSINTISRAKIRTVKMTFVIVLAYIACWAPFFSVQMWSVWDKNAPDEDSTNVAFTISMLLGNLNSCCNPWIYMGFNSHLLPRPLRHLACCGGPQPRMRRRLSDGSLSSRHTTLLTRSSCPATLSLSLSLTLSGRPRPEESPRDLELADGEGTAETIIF
The experiment is described as follows: V1b functional assay, intracellular calcium mobilization in transfected HEK-293 cells (FLIPR). The experiment is classed as cell-based. Set-up: expressed in transfected cells; host or cells: HEK-293. The settings on record: for IC50: challenge 0.5 nM AVP, read-out: Cell-Based Functional activity V1b IC50. The method, then:
V1a, V1b or V2 Functional Assay
HEK-293 cells were grown in DMEM media supplemented with 10% FBS and glutamine (Gibco BRL, Grand Island, N.Y.). Once transfected the cells were passed biweekly by trypsinization and seeded into 96 well plates at 33,000 cells per well. HEK-293 were transfected with human V1a, V1b or V2 DNA using DMRIE-C reagent from Life Technologies, Inc., Grand Island, N.Y. Cells were tested for their responsiveness to vasopressin 48 hours after transfection. Stable lines were generated by selecting cells grown in culture media containing geneticin (500 μg/ml, Life Technologies).
Intracellular calcium mobilization was measured in HEK-293 cells transfected to express either human V1a, oxytocin or V1b receptors. Cells were plated into black 96-well Packard Clear-View plates 4 to 7 days prior to use. The cells were loaded with fluo-3 AM (Molecular Probes, Inc., Eugene, Oreg.) in buffer (25 mM Hepes, 125 mM NaCl, 1 gm/l glucose, 0.1% BSA, 5 mM KCl, 0.5 mM CaCl2, 0.5 mM MgCl2, pH 7.45) containing Pluronic (Molecular Probes) Cells were incubated with 5 μM fluo-3 AM for 1 hour shielded from light at room temperature. Intracellular fluorescence was measured using FLIPR (fluorometric imaging plate reader; Molecular Devices, Inc., Sunnyvale, Calif.). The FLIPR protocol called for images to be collected at one second intervals with 50 μl of the test compound added after the initial 10 images. An additional 70 images were then taken to detect any compound agonistic activity. FLIPR then added 50 μl of agonist peptide and collected a final 40 images for quantitating compound antagonistic activity. V1a- and V1b-expressing HEK cells were challenged with 1 nM and 0.5 nM AVP, respectively. Oxytocin-expressing HEK cells were challenged with 0.5 nM oxytocin (Peninsula Labs).
The data from the cAMP accumulation and the calcium mobilization assays are expressed as IC50 values as determined from dose response curves.

Structures can show the parent of a compound that is named as a salt.

In the case of “1-[(N1-Piperidinocarbothioyl-(1-L-carboxymethyl-2-phenylamino)-4-yl]-3-(3-aminopropyl)-1,3-dihydrobenzimidazol-2-one Hydrochloride [Compound 57]”, in experiment [1], the “NPY-2@10, % Inh” value stood at 20%. Moreover, the half-maximal inhibitory concentration (IC50) in experiment [2] was 16.8 µM.
`CCN(CC)CCn1c(=O)n(C2CCN(C(=S)NC(c3ccccc3)c3ccccc3)CC2)c2ccccc21` [Compound 35, 1-(N1-Piperidinocarbothioyldiphenylmethylamino-4-yl)-3-(2-diethyaminoethyl)-1,3-dihydrobenzimidazol-2-one]: the inhibition at 10 µM in experiment [1] is 74%. In addition, the concentration for half-maximal inhibition (IC50) in experiment [2] came to 9.99 µM.
Take `CCN(CC)CCn1c(=O)n(C2CCN(C(=S)NC(Cc3ccccc3)C(=O)OC)CC2)c2ccccc21` [Compound 42, 1-(N1-Piperidinocarbothioyl-(2-phenyl-1-L-carboxymethyl)amino-4-yl)-3-(2-diethyaminoethyl)-1,3-dihydrobenzimidazol-2-one]: the inhibition at 10 µM in experiment [1] was 10%. Besides, the inhibition at 30 µM in experiment [2] (HEK293, 30 μM compound, read-out: Cell-Based Functional activity V1b % Inh. @ 30) came to 0%.
Regarding `NCCCn1c(=O)n(C2CCN(C(=S)NC(c3ccccc3)c3ccccc3)CC2)c2ccccc21` [Compound 55, 1-[(N1-Piperidinocarbothioyldiphenylmethylamino)-4-yl]-3-(3-aminopropyl)-1,3-dihydrobenzimidazol-2-one Monohydrochloride], the inhibition at 10 µM in experiment [1] was determined as 82%. In addition, the IC50 in experiment [2] was determined as 0.318 µM.
For `N=C(N)NCCCn1c(=O)n(C2CCN(C(=S)NC(c3ccccc3)c3ccccc3)CC2)c2ccccc21` [Compound 59, 1-[(N1-Piperidinocarbothioyldiphenylmethylamino)-4-yl]-3-(3-guanidinopropyl)-1,3-dihydrobenzimidazol-2-one], in that order: 90% and 6.61 µM.
